Organism: Rattus norvegicus
Test: Open TG-GATES - Regimen: Daily Repeat
Type: toxicity, organism-based, Sprague-Dawley
Design: regimen Daily Repeat, gender Male, age 6 weeks
Details: in vivo, po, 2 mg/kg, route gavage, dose level Middle; for APTT / Bas / Eos / Fbg / Hb / Ht / Lym / MCH / MCHC / MCV / Mono / Neu / PT / Plat / RBC / Ret / WBC: tissue Blood; for KIDNEY_L / KIDNEY_R / KIDNEY_TOTAL: tissue Kidney; for LIVER: tissue Liver; for A/G / ALP / ALT / AST / BUN / CRE / Ca / Cl / DBIL / GLC / IP / K / LDH / Na / PL / RALB / TBIL / TC / TG / TP / gamma-GTP: tissue Plasma

Compound `O=NN(CCCl)C(=O)NC1CCCCC1` [LOMUSTINE] has a TERMINAL_BW (72 h, time 3 day) of 220 g, an APTT (72 h, time 3 day) of 16.8 s and a Bas (72 h, time 3 day) of 0%. The Eos (72 h, time 3 day) was 0.8%, the Fbg (72 h, time 3 day) was 231.8 mg/dL and the Hb (72 h, time 3 day) was 13.3 g/dL. For the same compound, the Ht (72 h, time 3 day) was 39.9%, the Lym (72 h, time 3 day) was 82.4% and the MCH (72 h, time 3 day) was 21.1 pg. For the same compound, the MCHC (72 h, time 3 day) was 33.2%, the MCV (72 h, time 3 day) was 63.7 fL and the Mono (72 h, time 3 day) was 7.4%. The Neu (72 h, time 3 day) was 9.6%, the PT (72 h, time 3 day) was 11.7 s and the Plat (72 h, time 3 day) was 108 x10_4/uL. It also gave an RBC (72 h, time 3 day) of 628 x10_4/ul, a Ret (72 h, time 3 day) of 6.9% and a WBC (72 h, time 3 day) of 109.9 x10_2/uL. For the same compound, the KIDNEY_L (72 h, time 3 day) was 1 g, the KIDNEY_R (72 h, time 3 day) was 1 g and the KIDNEY_TOTAL (72 h, time 3 day) was 2 g. It also gave an LIVER (72 h, time 3 day) of 11.4 g, an A/G (72 h, time 3 day) of 2 and an ALP (72 h, time 3 day) of 962.6 IU/L. It also gave an ALT (72 h, time 3 day) of 29.8 IU/L, an AST (72 h, time 3 day) of 59.4 IU/L and a BUN (72 h, time 3 day) of 17 mg/dL. The CRE (72 h, time 3 day) was 0.4 mg/dL, the Ca (72 h, time 3 day) was 11 mg/dL and the Cl (72 h, time 3 day) was 105.8 meq/L. It also gave a DBIL (72 h, time 3 day) of 0.01 mg/dL, a GLC (72 h, time 3 day) of 186.2 mg/dL and an IP (72 h, time 3 day) of 7.9 mg/dL. The K (72 h, time 3 day) was 4.7 meq/L, the LDH (72 h, time 3 day) was 84 IU/L and the Na (72 h, time 3 day) was 139.4 meq/L. It also gave a PL (72 h, time 3 day) of 152.8 mg/dL, an RALB (72 h, time 3 day) of 4 g/dL and a TBIL (72 h, time 3 day) of 0.4 mg/dL. For the same compound, the TC (72 h, time 3 day) was 83.2 mg/dL, the TG (72 h, time 3 day) was 100.8 mg/dL and the TP (72 h, time 3 day) was 5.9 g/dL. For the same compound, the gamma-GTP (72 h, time 3 day) was 1.4 IU/L, the TERMINAL_BW ([…], time 7 day) was 246.4 g and the TERMINAL_BW ([…], time 14 day) was 298.5 g. It also gave a TERMINAL_BW ([…], time 28 day) of 364.6 g, an APTT ([…], time 7 day) of 15.6 s and a Bas ([…], time 7 day) of 0%. For the same compound, the Eos ([…], time 7 day) was 1%, the Fbg ([…], time 7 day) was 246.8 mg/dL and the Hb ([…], time 7 day) was 13.9 g/dL. It also gave a Ht ([…], time 7 day) of 42%, a Lym ([…], time 7 day) of 80% and an MCH ([…], time 7 day) of 21 pg. It also gave an MCHC ([…], time 7 day) of 33.3%, an MCV ([…], time 7 day) of 63.2 fL and a Mono ([…], time 7 day) of 7.4%. For the same compound, the Neu ([…], time 7 day) was 11.6%, the PT ([…], time 7 day) was 11.4 s and the Plat ([…], time 7 day) was 98.8 x10_4/uL. The RBC ([…], time 7 day) was 664.2 x10_4/ul, the Ret ([…], time 7 day) was 5.1% and the WBC ([…], time 7 day) was 103.8 x10_2/uL. It also gave an APTT ([…], time 14 day) of 16.4 s, a Bas ([…], time 14 day) of 0% and an Eos ([…], time 14 day) of 0.6%. The Fbg ([…], time 14 day) was 228.4 mg/dL, the Hb ([…], time 14 day) was 14.3 g/dL and the Ht ([…], time 14 day) was 42.9%. For the same compound, the Lym ([…], time 14 day) was 81.8%, the MCH ([…], time 14 day) was 20.3 pg and the MCHC ([…], time 14 day) was 33.2%. For the same compound, the MCV ([…], time 14 day) was 61.2 fL, the Mono ([…], time 14 day) was 5.8% and the Neu ([…], time 14 day) was 11.8%. The PT ([…], time 14 day) was 11.4 s, the Plat ([…], time 14 day) was 129.2 x10_4/uL and the RBC ([…], time 14 day) was 701.8 x10_4/ul. For the same compound, the Ret ([…], time 14 day) was 4.3%, the WBC ([…], time 14 day) was 127.6 x10_2/uL and the APTT ([…], time 28 day) was 16 s. The Bas ([…], time 28 day) was 0%, the Eos ([…], time 28 day) was 1% and the Fbg ([…], time 28 day) was 230.4 mg/dL. For the same compound, the Hb ([…], time 28 day) was 14.9 g/dL, the Ht ([…], time 28 day) was 44.4% and the Lym ([…], time 28 day) was 80%. It also gave an MCH ([…], time 28 day) of 19 pg, an MCHC ([…], time 28 day) of 33.5% and an MCV ([…], time 28 day) of 56.9 fL. It also gave a Mono ([…], time 28 day) of 7.6%, a Neu ([…], time 28 day) of 11.6% and a PT ([…], time 28 day) of 11.3 s. It also gave a Plat ([…], time 28 day) of 113.9 x10_4/uL, an RBC ([…], time 28 day) of 780.6 x10_4/ul and a Ret ([…], time 28 day) of 2.5%. The WBC ([…], time 28 day) was 145.6 x10_2/uL, the KIDNEY_L ([…], time 7 day) was 1 g and the KIDNEY_R ([…], time 7 day) was 1 g. The KIDNEY_TOTAL ([…], time 7 day) was 2 g, the KIDNEY_L ([…], time 14 day) was 1.2 g and the KIDNEY_R ([…], time 14 day) was 1.2 g. For the same compound, the KIDNEY_TOTAL ([…], time 14 day) was 2.5 g, the KIDNEY_L ([…], time 28 day) was 1.4 g and the KIDNEY_R ([…], time 28 day) was 1.4 g. It also gave a KIDNEY_TOTAL ([…], time 28 day) of 2.7 g, an LIVER ([…], time 7 day) of 13 g and an LIVER ([…], time 14 day) of 14.1 g. It also gave an LIVER ([…], time 28 day) of 16.6 g, an A/G ([…], time 7 day) of 1.7 and an ALP ([…], time 7 day) of 976.4 IU/L. For the same compound, the ALT ([…], time 7 day) was 47.2 IU/L, the AST ([…], time 7 day) was 85.8 IU/L and the BUN ([…], time 7 day) was 19.6 mg/dL. The CRE ([…], time 7 day) was 0.4 mg/dL, the Ca ([…], time 7 day) was 11.2 mg/dL and the Cl ([…], time 7 day) was 105.8 meq/L. The DBIL ([…], time 7 day) was 0.016 mg/dL, the GLC ([…], time 7 day) was 181.8 mg/dL and the IP ([…], time 7 day) was 7.7 mg/dL. The K ([…], time 7 day) was 4.6 meq/L, the LDH ([…], time 7 day) was 87 IU/L and the Na ([…], time 7 day) was 139.8 meq/L. It also gave a PL ([…], time 7 day) of 169.6 mg/dL, an RALB ([…], time 7 day) of 3.8 g/dL and a TBIL ([…], time 7 day) of 0.3 mg/dL. It also gave a TC ([…], time 7 day) of 98.8 mg/dL, a TG ([…], time 7 day) of 95.6 mg/dL and a TP ([…], time 7 day) of 6.1 g/dL. It also gave a gamma-GTP ([…], time 7 day) of 2.2 IU/L, an A/G ([…], time 14 day) of 2.1 and an ALP ([…], time 14 day) of 822.6 IU/L. The ALT ([…], time 14 day) was 36.2 IU/L, the AST ([…], time 14 day) was 66.8 IU/L and the BUN ([…], time 14 day) was 17.4 mg/dL. The CRE ([…], time 14 day) was 0.5 mg/dL, the Ca ([…], time 14 day) was 11.4 mg/dL and the Cl ([…], time 14 day) was 106.4 meq/L. The DBIL ([…], time 14 day) was 0.032 mg/dL, the GLC ([…], time 14 day) was 183.8 mg/dL and the IP ([…], time 14 day) was 7.3 mg/dL. For the same compound, the K ([…], time 14 day) was 4.6 meq/L, the LDH ([…], time 14 day) was 94.8 IU/L and the Na ([…], time 14 day) was 140.2 meq/L. The PL ([…], time 14 day) was 166 mg/dL, the RALB ([…], time 14 day) was 4.1 g/dL and the TBIL ([…], time 14 day) was 0.3 mg/dL. For the same compound, the TC ([…], time 14 day) was 77.2 mg/dL, the TG ([…], time 14 day) was 136 mg/dL and the TP ([…], time 14 day) was 6.1 g/dL. The gamma-GTP ([…], time 14 day) was 2.4 IU/L, the A/G ([…], time 28 day) was 1.7 and the ALP ([…], time 28 day) was 637.8 IU/L. For the same compound, the ALT ([…], time 28 day) was 61.4 IU/L, the AST ([…], time 28 day) was 115.8 IU/L and the BUN ([…], time 28 day) was 19.6 mg/dL. The CRE ([…], time 28 day) was 0.4 mg/dL, the Ca ([…], time 28 day) was 11.1 mg/dL and the Cl ([…], time 28 day) was 106.8 meq/L. For the same compound, the DBIL ([…], time 28 day) was 0.054 mg/dL, the GLC ([…], time 28 day) was 186.6 mg/dL and the IP ([…], time 28 day) was 6.3 mg/dL. For the same compound, the K ([…], time 28 day) was 4.5 meq/L, the LDH ([…], time 28 day) was 163 IU/L and the Na ([…], time 28 day) was 139.8 meq/L. For the same compound, the PL ([…], time 28 day) was 192.4 mg/dL, the RALB ([…], time 28 day) was 4.1 g/dL and the TBIL ([…], time 28 day) was 0.3 mg/dL. For the same compound, the TC ([…], time 28 day) was 106.6 mg/dL, the TG ([…], time 28 day) was 85.4 mg/dL and the TP ([…], time 28 day) was 6.5 g/dL. The gamma-GTP ([…], time 28 day) was 3.6 IU/L.

Source: ChEMBL document CHEMBL3885861, “Open TG-GATES”
